Values joined by “and” are separate entries in the source; they are usually repeats but may differ in a detail not shown here. Equal entries are not always repeated. Where two headings read alike, the source gives them in different places.
Legend:
[1] = target: T1, galectin-3 (Homo sapiens, UniProt P17931); conditions: cited from earlier work
T1 construct: made in house

[2] = target: T2, galectin-1 (Homo sapiens, UniProt P09382); conditions: cited from earlier work
T2 construct: made in house

[3] = target: T3, galectin-4C (Homo sapiens, UniProt P56470); conditions: cited from earlier work
T3 construct: made in house; host or cells: E. coli BL-21 (DE3)
T3 sequence (P56470 185-323): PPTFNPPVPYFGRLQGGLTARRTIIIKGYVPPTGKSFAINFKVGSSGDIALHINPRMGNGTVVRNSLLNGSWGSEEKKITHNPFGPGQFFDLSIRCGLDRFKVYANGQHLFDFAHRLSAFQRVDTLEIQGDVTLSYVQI

[4] = target: T1, galectin-3; assay: competitive fluorescence polarization assay, galectin-3; conditions: Kd and SEM from 3–6 single point measurements, > values estimated, no apparent binding at highest concentration, read-out: Dissociation constants, Galectin-3
Experimental: (§1) Affinities of 1c–1z for galectin-1, -3, -4C, -4N, -7, -8C, -8N, -9C, and -9N were measured using an established fluorescence polarization assay[57] with reported probes and conditions.[19] […]
(§2) Fluorescence polarization experiments
(§3) Human galectin-11 and galectin-32 were expressed and purified as earlier described. Fluorescence polarization experiments were performed on a PheraStarFS plate reader with software PHERAstar Mars version 2.10 R3 (BMG, Offenburg, Germany). Specific experimental conditions were a galectin-1 concentration of 0.5 µM together with the fluorescent probe (3,3’-dideoxy-3-[4-(fluorescein-5-yl-carbonylaminomethyl)-1H-1,2,3-triazol-1-yl]-3’-(3,5-di-methoxybenzamido)-1,1’-sulfanediyl-di-β-D-galactopyranoside 1 concentration of 20 nM and a galectin-3 concentration of 0.2 µM together with the fluorescent probe (3,3’-dideoxy-3-[4-(fluorescein-5-yl-carbonylaminomethyl)-1H-1,2,3- […]
(§4) triazol-1-yl]-3’-(3,5-di-methoxybenzamido)-1,1’-sulfanediyl-di-β-D-galactopyranoside) concentration of 20 nM, respectively. Inhibitors were dissolved in dimethylsulfoxide (analytical grade) to a concentration of 20 mM, diluted with PBS to 3–6 different concentrations, and tested in duplicate twice for galectin affinity using a competitive fluorescence polarization assay as earlier described.3 The highest inhibitor concentrations tested were 1 mM due to solubility limitations at higher concentration. Dissociation constants average and SEM were calculated from two to eight single point measurements showing between 20–80% inhibition. […]

[5] = target: T3, galectin-4C; assay: competitive fluorescence polarization assay, galectin-4C; assay type: binding; conditions: for Kd: fluorescence polarization, x/y cells = only two data points revealed inhibition, both shown, > values estimated, no apparent binding at highest concentration, read-out: Dissociation constants, Galectin-4C
Experimental: Affinities of 1c–1z for galectin-1, -3, -4C, -4N, -7, -8C, -8N, -9C, and -9N were measured using an established fluorescence polarization assay[57] with reported probes and conditions.[19]
Recombinant human galectin-4 C-terminal carbohydrate recognition domain was expressed and purified as previously reported.[57,70] Briefly, BL-21 (DE3) E. coli cells containing galectin-4C (amino acid sequence 185–323) was expressed, lysed by sonication and purified by affinity chromatography on a lactosyl-Sepharose column. Galectin-4C protein was eluted using 50 mM β-lactose in PBS, pH 7.4. Galectin-4C was then further gel purified using a Superdex 200/60 column (GE Healthcare) previously equilibrated in PBS, pH 7.4. The peak fractions collected containing galectin-4C were pooled and concentrated to 6.5 mg mL^−1 using an AmiconUltra 3K molecular weight cut-off centrifugal concentrator (Millipore, Billerica, MA, USA) and used directly in crystallisation studies. […]
as §4

[6] = target: T2, galectin-1; assay: competitive fluorescence polarization assay, galectin-1; assay type: binding; conditions: for Kd: fluorescence polarization, Kd and SEM from 3–6 single point measurements, read-out: Dissociation constants, Galectin-1
Experimental: as §1, §2, §3, §4

[7] = target: T4, galectin-4N (Homo sapiens, UniProt P56470); assay: competitive fluorescence polarization assay, galectin-4N; assay type: binding; conditions: Kd and SEM from 3–6 single point measurements, read-out: Dissociation constants, Galectin-4N
T4 construct: called “N” for the N-terminal CRD and “C” for the C-terminal
T4 sequence (P56470 19-150 limits assumed): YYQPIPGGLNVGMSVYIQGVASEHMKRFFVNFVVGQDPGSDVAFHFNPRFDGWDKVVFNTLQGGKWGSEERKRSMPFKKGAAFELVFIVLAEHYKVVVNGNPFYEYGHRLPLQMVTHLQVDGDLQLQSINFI
Experimental: as §1, §4

[8] = Table 1 reference compounds, read-out: Dissociation constants, Galectin-3
[9] = Table 1 reference compounds, read-out: Dissociation constants, Galectin-1
[10] = Chart 1, known C1-galactosyl inhibitors, read-out: affinity, Galectin-4C
[11] = Chart 1, known C1-galactosyl inhibitors, read-out: affinity, Galectin-1
[12] = Chart 1, known C1-galactosyl inhibitors, read-out: affinity, Galectin-3

T1 sequence (P17931 whole entry): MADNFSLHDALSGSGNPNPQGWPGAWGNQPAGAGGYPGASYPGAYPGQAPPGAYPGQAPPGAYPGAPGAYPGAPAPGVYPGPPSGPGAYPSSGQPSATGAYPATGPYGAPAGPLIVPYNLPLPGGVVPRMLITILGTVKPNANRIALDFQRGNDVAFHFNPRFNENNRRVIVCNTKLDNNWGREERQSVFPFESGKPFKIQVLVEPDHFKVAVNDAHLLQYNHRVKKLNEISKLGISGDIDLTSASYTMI
T2 sequence (P09382 whole entry): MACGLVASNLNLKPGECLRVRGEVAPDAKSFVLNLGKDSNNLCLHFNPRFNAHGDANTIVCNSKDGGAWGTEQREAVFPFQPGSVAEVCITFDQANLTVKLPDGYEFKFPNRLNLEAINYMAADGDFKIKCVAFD

Structure (SMILES) | Kd [4] [µM] | Kd [5] | Kd [6] [µM] | other results
OC[C@H]1O[C@@H](c2cn(-c3ccccc3F)nn2)[C@H](O)[C@@H](O)[C@H]1O [Compound 1a] |  |  |  | Kd [1, 8]: 880 µM; Kd [2, 9]: 170 µM; Kd [3, 10]: 780 µM
OC[C@H]1O[C@@H](c2cn(-c3ccc(Cl)cc3)nn2)[C@H](O)[C@@H](O)[C@H]1O [Compound 1b] |  |  |  | Kd [1, 8]: 1700 µM; Kd [2, 9]: 340 µM; Kd [3, 10]: 760 µM
OC[C@H]1O[C@@H](c2cn(-c3ccc(Br)cc3)nn2)[C@H](O)[C@@H](O)[C@H]1O [Compound 1c, 4-(1-Deoxy-β-D-galactopyranosyl)-1-(4-bromophenyl)-1H-1,2,3-triazole] | 1400 ± 340 | 1400 µM and 1500 µM | 140 ± 25 | selectivity for galectin-1 over galectin-3 ([6]; ratio of Kd): tenfold
OC[C@H]1O[C@@H](c2cn(-c3cccc(Br)c3)nn2)[C@H](O)[C@@H](O)[C@H]1O [Compound 1d, 4-(1-Deoxy-β-D-galactopyranosyl)-1-(3-bromophenyl)-1H-1,2,3-triazole] | 1600 ± 30 | > 2000 µM | 1400 ± 95 | 
OC[C@H]1O[C@@H](c2cn(-c3ccc(I)cc3)nn2)[C@H](O)[C@@H](O)[C@H]1O [Compound 1e] | > 1000 |  | 460 ± 50 | 
OC[C@H]1O[C@@H](c2cn(-c3cccc(I)c3)nn2)[C@H](O)[C@@H](O)[C@H]1O [Compound 1f] | > 1000 |  | 1300 ± 220 | 
OC[C@H]1O[C@@H](c2cn(-c3ccc(C(F)(F)F)cc3)nn2)[C@H](O)[C@@H](O)[C@H]1O [Compound 1g] | 1200 ± 31 | 2300 µM and 2600 µM | 1300 ± 320 | 
OC[C@H]1O[C@@H](c2cn(-c3cccc(C(F)(F)F)c3)nn2)[C@H](O)[C@@H](O)[C@H]1O [Compound 1h] | 1300 ± 69 | 1500 µM and 2200 µM | 1500 ± 62 | 
O=[N+]([O-])c1ccc(-n2cc([C@@H]3O[C@H](CO)[C@H](O)[C@H](O)[C@H]3O)nn2)cc1 [Compound 1i] | 1500 ± 67 | 910 ± 46 µM | 400 ± 5 | 
O=[N+]([O-])c1cccc(-n2cc([C@@H]3O[C@H](CO)[C@H](O)[C@H](O)[C@H]3O)nn2)c1 [Compound 1j] | 1000 ± 23 | > 2000 µM | 1800 ± 64 | 
OC[C@H]1O[C@@H](c2cn(-c3c(F)cccc3F)nn2)[C@H](O)[C@@H](O)[C@H]1O [Compound 1k] | 1200 ± 90 | > 2000 µM | 1300 ± 190 | 
OC[C@H]1O[C@@H](c2cn(-c3ccc(Cl)cc3F)nn2)[C@H](O)[C@@H](O)[C@H]1O [Compound 1l] | 1200 ± 110 | > 2000 µM | 300 ± 20 | 
OC[C@H]1O[C@@H](c2cn(-c3cc(Cl)ccc3F)nn2)[C@H](O)[C@@H](O)[C@H]1O [Compound 1m] | 870 ± 140 | 1300 ± 260 µM | 580 ± 12 | 
OC[C@H]1O[C@@H](c2cn(-c3cccc(Cl)c3F)nn2)[C@H](O)[C@@H](O)[C@H]1O [Compound 1n] | > 1000 | > 2000 µM | 1100 ± 48 | 
OC[C@H]1O[C@@H](c2cn(-c3ccc(Br)cc3F)nn2)[C@H](O)[C@@H](O)[C@H]1O [Compound 1o] | 770 ± 89 | > 2000 µM | 310 ± 29 | 
OC[C@H]1O[C@@H](c2cn(-c3ccc(Cl)c(Cl)c3)nn2)[C@H](O)[C@@H](O)[C@H]1O [Compound 1p] | 660 ± 53 | 2300 µM and 2500 µM | 1300 ± 200 | 

Structure (SMILES) | Kd [4] [µM] | Kd [5] | Kd [6] [µM] | other results
Cc1ccc(-n2cc([C@@H]3O[C@H](CO)[C@H](O)[C@H](O)[C@H]3O)nn2)cc1Cl [Compound 1q] | 1400 ± 38 | > 2000 µM | 1200 ± 240 | 
OC[C@H]1O[C@@H](c2cn(-c3ccc(Cl)cn3)nn2)[C@H](O)[C@@H](O)[C@H]1O [Compound 1r] | 490 ± 6 | > 2000 µM | 650 ± 3 | 
OC[C@H]1O[C@@H](c2cn(-c3nccs3)nn2)[C@H](O)[C@@H](O)[C@H]1O [Compound 1s] | 910 ± 92 | > 2000 µM | 980 ± 7 | 
OC[C@H]1O[C@@H](c2cn(-c3ccc(-c4ccccc4)cc3)nn2)[C@H](O)[C@@H](O)[C@H]1O [Compound 1t] | 2000 ± 270 | 880 ± 82 µM | 970 ± 25 | 
OC[C@H]1O[C@@H](c2cn(-c3ccc4c(c3)CCC4)nn2)[C@H](O)[C@@H](O)[C@H]1O [Compound 1u] | 1400 ± 160 | 2100 ± 490 µM | 2100 ± 73 | 
CS(=O)(=O)c1ccc(-n2cc([C@@H]3O[C@H](CO)[C@H](O)[C@H](O)[C@H]3O)nn2)cc1 [Compound 1v] | 690 ± 70 | 2900 µM and 3500 µM | 780 ± 43 | 
CS(=O)(=O)c1cccc(-n2cc([C@@H]3O[C@H](CO)[C@H](O)[C@H](O)[C@H]3O)nn2)c1 [Compound 1w] | 1400 ± 70 | > 2000 µM | 1400 ± 85 | 
CC(=O)c1ccc(-n2cc([C@@H]3O[C@H](CO)[C@H](O)[C@H](O)[C@H]3O)nn2)cc1 [Compound 1x] | 1200 ± 83 | 1900 ± 550 µM | 970 ± 65 | 
CC(=O)c1cccc(-n2cc([C@@H]3O[C@H](CO)[C@H](O)[C@H](O)[C@H]3O)nn2)c1 [Compound 1y] | 1000 ± 200 | 2000 µM and 2700 µM | 1300 ± 260 | 
OC[C@H]1O[C@@H](c2cn(-c3ccccn3)nn2)[C@H](O)[C@@H](O)[C@H]1O [Compound 1z] | 880 ± 100 | 2600 µM and 3100 µM | 150 ± 17 | 
OC[C@H]1O[C@@H](c2cnc(-c3cccc4ccccc34)o2)[C@H](O)[C@@H](O)[C@H]1O [Compound 2] |  |  |  | Kd ([1]; as printed in the running text, read-out: galectin-3 affinity): 90 µM; Kd [2, 11]: 490 µM; Kd [3, 10]: 550 µM
OC[C@H]1O[C@@H](Cn2cc(-c3ccc(F)cc3)nn2)[C@H](O)[C@@H](O)[C@H]1O [Compound 3] |  |  |  | Kd [1, 12]: 710 µM; Kd [2, 11]: 170 µM; Kd [3, 10]: 1200 µM
OC[C@H]1O[C@@H](Cn2cc(-c3ccc(C(F)(F)F)cc3)nn2)[C@H](O)[C@@H](O)[C@H]1O [Compound 4] |  |  |  | Kd [1, 12]: 830 µM; Kd [2, 11]: 240 µM; Kd [3, 10]: > 900 µM
OC[C@H]1O[C@@H](c2cn(-c3ccccc3F)nn2)[C@H](O)[C@@H](n2cc(-c3ccccc3)nn2)[C@H]1O [Compound 16a, 1,3-Dideoxy-1-(1-(2-fluorophenyl)-1H-1,2,3-triazol-4-yl)-3-(4-(phenyl)-1H-1,2,3-triazolyl)-β-D-galactopyranosyl] | 34 ± 1 | 18 ± 2 µM | 280 ± 39 | Kd [7]: 90 ± 17 µM
OC[C@H]1O[C@@H](c2cnc(-c3cccc4ccccc34)o2)[C@H](O)[C@@H](n2cc(-c3ccccc3)nn2)[C@H]1O [Compound 18] |  | 2.3 ± 0.4 µM |  | selectivity for galectin-4C over galectin-3 ([5]; ratio of Kd): 4 fold
CO[C@@H]1O[C@H](CO)[C@@H](O[C@@H]2O[C@H](CO)[C@H](O)[C@H](O)[C@H]2O)[C@H](O)[C@H]1O [β-Me Lac, methyl β-lactoside] |  |  |  | Kd ([1]; Table 1 reference saccharides, read-out: Dissociation constants, Galectin-3): 220 µM; Kd ([2]; Table 1 reference saccharides, read-out: Dissociation constants, Galectin-1): 190 µM; Kd ([3]; Table 1 reference saccharides, read-out: Dissociation constants, Galectin-4C): 2900 µM

— article PMC12302229, “Synergy of triazolyl substituents at C1 and C3 of galactose for high-affinity and selective galectin-4C inhibition” (RSC Chemical Biology, 2025)
